From article PMC11808397, “Development of selective nanomolar cyclic peptide ligands as GBA1 enzyme stabilisers” (RSC Chemical Biology, 2025)
Positions of bridges follow the written chain, without caps; N, C: chain ends. Non-standard residues stand in square brackets, D forms with d. Residues, ends and D or L forms follow the SMILES beside them.

Experiments:
[1] = target: T1, recombinant human GBA1 (rhGBA1, Cerezyme) (Homo sapiens, UniProt P04062, R534H); test: In vitro rhGBA1 inhibition, 4-MU-β-D-glucopyranoside hydrolysis; assay type: biochemical; conditions: Cerezyme 14 nM, 3.7 mM 4-MU-β-D-glucopyranoside, McIlvaine pH 5.2, 30 min pre-incubation 37 °C + 30 min, mean ± SD from 3 technical triplicates
T1 construct: purchased Cerezyme
T1 sequence (P04062 40-536 R534H): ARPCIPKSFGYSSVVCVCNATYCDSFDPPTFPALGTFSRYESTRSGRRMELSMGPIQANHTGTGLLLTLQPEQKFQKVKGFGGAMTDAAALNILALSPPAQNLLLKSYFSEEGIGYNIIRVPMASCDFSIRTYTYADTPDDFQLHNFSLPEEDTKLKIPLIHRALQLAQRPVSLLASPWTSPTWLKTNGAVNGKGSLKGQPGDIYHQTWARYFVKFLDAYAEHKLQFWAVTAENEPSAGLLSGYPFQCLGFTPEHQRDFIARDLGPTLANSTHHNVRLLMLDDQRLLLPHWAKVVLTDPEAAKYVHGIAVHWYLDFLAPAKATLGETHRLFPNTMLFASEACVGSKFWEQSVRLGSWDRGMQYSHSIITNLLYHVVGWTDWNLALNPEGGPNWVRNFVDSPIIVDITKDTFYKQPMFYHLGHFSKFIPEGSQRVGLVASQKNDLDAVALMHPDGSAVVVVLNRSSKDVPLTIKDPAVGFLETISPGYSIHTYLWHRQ
Protocol: (§1) Based on the pull-down validation, a set of eight cyclic peptides (L1, L2, L4, L6, D1, D8, D12 and D13) were identified, synthesized, and evaluated for their inhibitory potency against recombinant human GBA1 (rhGBA1, Cerezyme®) and their selectivity over human β-glucosidases GBA2 and GBA3. Half-maximum inhibitory concentration (IC50) values for β-glucosidases were determined in vitro by measuring hydrolysis of 4-methylumbelliferyl-β-D-glucopyranoside (4-MU-β-D-Glu) fluorogenic substrate. […]
Pure product fractions were pooled, lyophilized, and dissolved again in DMSO before concentration was determined by A280 using a sample diluted in phosphate buffer at pH 7.4 and extinction coefficients determined from the sequence using the Expasy ProtParam online tool (https://web.expasy.org/protparam/). […]
2.5. In vitro IC50 and Ki measurements
For GBA1, IC50 values were determined using the recombinant human GBA1 (rhGBA1, Cerezyme) following described procedures.4 Enzyme activity was measured using 3.7 mM 4-methylumbeliferone (4MU)-β-D-glucopyranoside in 150 mM McIlvaine buffer pH 5.2 supplemented with 0.1% bovine serum albumin (BSA) (w/v), 0.1% Triton X-100 (v/v), and 0.2% sodium taurocholate (w/v). Varying concentrations of inhibitor (12.5 µL) were incubated with 12.5 µL of enzyme (final concentration 14 nM) at 37 °C for 30 min. Following this, 100 µL of 4MU substrate was added and the samples were again incubated at 37 °C for 30 min. The reaction was quenched using excess 1 M NaOH-glycine (200 µL, pH 10.3) and 4MU fluorescence was measured using a LS55 fluorimeter (λEx 366 nm and λEm 445 […]
30 min at 37 °C (12.5 µL) and subsequently incubated with the tested ligands at a range of concentrations for 30 min at 37 °C (12.5 µL), after which 100 µL 4MU-β-D-glucopyranoside was added for a final incubation of 30 min at 37 °C, quenched with 200 µL 1 M NaOH-glycine (pH 10.3) and fluorescence was measured. IC50 values were calculated using GraphPad Prism version 8.

[2] = target: T2, GBA2 (Homo sapiens, UniProt Q9HCG7); test: GBA2 inhibition in overexpressing HEK293T lysates; assay type: biochemical; conditions: McIlvaine pH 5.8, 4-MU substrate
T2 construct: expressed in transfected cells
T2 sequence (Q9HCG7 1-927): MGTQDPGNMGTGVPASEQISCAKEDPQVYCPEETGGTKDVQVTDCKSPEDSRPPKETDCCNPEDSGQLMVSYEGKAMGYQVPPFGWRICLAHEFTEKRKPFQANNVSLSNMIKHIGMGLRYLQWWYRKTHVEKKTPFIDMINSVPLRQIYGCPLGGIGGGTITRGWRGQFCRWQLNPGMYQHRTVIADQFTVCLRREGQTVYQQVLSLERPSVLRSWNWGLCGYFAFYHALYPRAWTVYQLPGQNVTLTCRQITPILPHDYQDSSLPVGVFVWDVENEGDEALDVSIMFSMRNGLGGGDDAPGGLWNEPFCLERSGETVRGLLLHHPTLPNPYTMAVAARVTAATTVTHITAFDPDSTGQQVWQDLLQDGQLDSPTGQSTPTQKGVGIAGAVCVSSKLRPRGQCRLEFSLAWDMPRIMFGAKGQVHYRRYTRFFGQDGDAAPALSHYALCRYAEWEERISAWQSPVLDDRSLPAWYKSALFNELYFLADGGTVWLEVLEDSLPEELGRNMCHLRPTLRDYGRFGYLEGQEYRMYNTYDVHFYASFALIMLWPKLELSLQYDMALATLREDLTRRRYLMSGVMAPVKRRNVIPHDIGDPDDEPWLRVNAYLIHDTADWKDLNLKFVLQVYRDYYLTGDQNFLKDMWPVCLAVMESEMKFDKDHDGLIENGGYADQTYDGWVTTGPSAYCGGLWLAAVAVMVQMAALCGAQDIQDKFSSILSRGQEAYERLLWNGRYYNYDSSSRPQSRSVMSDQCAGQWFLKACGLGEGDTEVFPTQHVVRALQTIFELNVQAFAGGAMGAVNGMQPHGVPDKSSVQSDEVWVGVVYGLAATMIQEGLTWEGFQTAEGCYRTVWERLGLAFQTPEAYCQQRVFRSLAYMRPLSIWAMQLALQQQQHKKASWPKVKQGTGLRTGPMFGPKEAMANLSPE
Protocol: as §1
2.5. In vitro IC50 and Ki measurements […]
nM) at 37 °C for 30 min. Following this, 100 µL of 4MU substrate was added and the samples were again incubated at 37 °C for 30 min. The reaction was quenched using excess 1 M NaOH-glycine (200 µL, pH 10.3) and 4MU fluorescence was measured using a LS55 fluorimeter (λEx 366 nm and λEm 445 […]
GBA2 and GBA3 IC50 values were determined following a similar protocol,5 using stable GBA2 or GBA3 HEK293T over-expression cell lysates and McIlvaine buffer pH 5.8 with 0.1 % BSA (w/v) and 100 mM HEPES with 0.1 % BSA, respectively. Covalent inhibitor of endogenous GBA1 (1 µM Bodipy green-cyclophellitol β-epoxide activity based probe) was added for both GBA2 and GBA3 assays, and GBA2 inhibitor N-(5-adamantane-1-yl-methoxy-pentyl)-deoxynojirimycin, AMP-DNM at 1 nM) was added for GBA3 assay. Cell lysates were pre-incubated with the aforementioned GBA1/GBA2 inhibitors for 30 min at 37 °C (12.5 µL) and subsequently incubated with the tested ligands at a range of concentrations for 30 min at 37 °C (12.5 µL), after which 100 µL 4MU-β-D-glucopyranoside was added for a final incubation of 30 min at 37 °C, quenched with 200 µL 1 M NaOH-glycine (pH 10.3) and fluorescence was measured. IC50 values were calculated using GraphPad Prism version 8.

[3] = tested on: RAW 264.7 cells; test: In situ competitive activity-based protein profiling (cABPP); assay type: cell-based; conditions: 0-100 μM for 4 hours, then JJB75 10 nM for 2 hours, fluorescence SDS-gel scanning
Protocol: We further investigated GBA1 inhibition in cells. Human dermal fibroblasts were initially incubated with peptide concentrations ranging from 0.1 μM (from 0.001 μM for L4, D1 and D12) to 100 μM of each cyclic peptide for 3 hours. […] To further confirm the inability of these peptides to cross the cell membrane, we conducted in situ competitive activity-based protein profiling (cABPP) experiments using RAW 264.7 monocyte/macrophage-like cells. […]
Figure S6. […] Cells were washed, lysed and analysed by fluorescent readout. […]
Human fibroblasts (Cambrex-Lonza CC-2511) were cultured in complete DMEM/F12 growth medium supplemented with 10% (v/v) foetal calf serum and 0.1 % (w/v) penicillin/streptomycin at 37 °C and 5% CO2. […] GlcCer and GlcSph lipids were quantified as described below. In parallel, enzyme activity in cell lysates was measured using 3.7 mM 4-methylumbeliferone (4MU)-β-D-glucopyranoside in 150 mM McIlvaine buffer pH 5.2 supplemented with 0.1% bovine serum albumin (BSA) (w/v), 0.1% Triton X-100 (v/v), and 0.2% sodium taurocholate (w/v) as described above (see Table S1). […]
Cells were kept on ice and equal protein amounts were loaded per well on a 10% SDS-PAGE gel. Gels were scanned for fluorescence and then stained with Coomassie Brilliant Blue for loading control. […]
Levels of GlcCer and GlcSph were determined with a modified acidic Bligh & Dyer extraction (Figure 2 […]

**Q.** Which results are given for `CC[C@H](C)[C@@H]1NC(=O)[C@H](CC(C)C)NC(=O)[C@H](Cc2ccc(O)cc2)NC(=O)[C@H](C)NC(=O)[C@H](CCC(N)=O)NC(=O)[C@H](CO)NC(=O)[C@H](CCCCN)NC(=O)[C@H]([C@@H](C)O)NC(=O)[C@H](Cc2c[nH]c3ccccc23)NC(=O)[C@H]([C@@H](C)O)NC(=O)[C@H]([C@@H](C)CC)NC(=O)[C@H](C(C)C)NC(=O)[C@H](CCC(N)=O)NC(=O)[C@@H](Cc2ccc(O)cc2)NC(=O)CSC[C@@H](C(N)=O)NC(=O)[C@H](CCC(N)=O)NC1=O` [D13] ({CH2CO}-[dY]QVITWTKSQAYLIQC-NH2; thioether N-16)?
**A.** rhGBA1 IC50 [1]: high micromolar range; IC50 ([1]; SD): 26.4 ± 3.31 µM; IC50 [2]: > 100 µM

**Q.** Which “competition with ABP JJB75 (cell permeability)” value [3] does the source give for `CC1=CC(C)=[N+]2C1=C(CCCCc1cn(C[C@@H]3[C@@H](O)[C@H](O)[C@@H](O)[C@@H]4O[C@H]34)nn1)c1c(C)cc(C)n1[B-]2(F)F` [MDW933] here?
**A.** Its value is “did show competition”.
